“And” between values parts separate entries of the source, which are not always exact repeats. Equal entries are not always repeated. Where two headings read alike, the source gives them in different places.
Columns and labels:
AtMRP1 = molecular target: T1, AtMRP1 (Arabidopsis thaliana, UniProt Q9C8G9); experiment: AtMRP1-dependent uptake by membrane vesicles from pYES3-AtMRP1-transformed DTY168 cells; format: biochemical
T1 construct: S. cerevisiae DTY168 (ycf1 null) vacuolar-enriched membrane vesicles
Procedure: S. cerevisiae strain DTY168 (MATα his6, leu2-3, -112, ura3-52 ycf1::hisG) was transformed with pYES3-AtMRP1 or empty vector lacking the AtMRP1 insert (pYES3) by the LiOAc/PEG method (Giest et al., 1991, Yeast 7:253-263) and selected for uracil prototrophy by plating on AHC medium containing tryptophan (Kim et al., 1994, supra).
For the preparation of membrane vesicles, 15 ml volumes of stationary phase cultures of the transformants were diluted into 1 L of fresh AHC medium and grown to an OD600 nm of about 1.2. Membrane vesicles were purified as described herein and in Kim et al. (1995, supra).
[…] μl reaction volumes containing 3 mM ATP, 3 mM MgSO4, 5 μM gramicidin-D, 10 mM creatine phosphate, 16 units/ml creatine kinase, 50 mM KCl, 1 mg/ml BSA, 400 mM sorbitol, 25 mM Tris-Mes ([…]).
(§1) Cells were grown and vacuolar membrane-enriched vesicles were prepared as described (Kim et al., 1995, J Biol. Chem. 270:2630-2635-). […] Uptake was terminated by the addition of 1 ml ice-cold wash medium (400 mM sorbitol/3 mM Tris-Mes, pH 8.0) and vacuum filtration of the suspension through prewetted Millipore HA cellulose nitrate filters (pore size 0.45 μm). The filters were rinsed twice with wash medium, and the retained radioactivity was determined by liquid scintillation counting. Nonenergized uptake was estimated by the same procedure except that ATP was omitted from the uptake medium.

[1] = system: vacuolar membrane vesicles purified from Beta vulgaris storage root; details: cited from earlier work
[2] = system: endogenous GS-X pump of plant vacuolar membranes; details: read-out: Km for transport by endogenous plant vacuolar GS-X pump; cited from earlier work
[3] = system: vacuolar GS-X pump (vacuolar membrane vesicles, Z. mays roots); experiment: GS-conjugate uptake by vacuolar membrane vesicles from roots of Z. mays; format: biochemical, Zea mays
AtMRP2 = molecular target: T2, AtMRP2 (Arabidopsis thaliana, UniProt Q42093); experiment: AtMRP2-dependent uptake by membrane vesicles from pYES3-AtMRP2-transformed DTY168 cells; format: biochemical
T2 construct: S. cerevisiae DTY168 (ycf1 null) vacuolar-enriched membrane vesicles
Procedure: as §1
Membranes from DTY168/pYES3-AtMRP2 cells were incubated for 10 minutes in standard uptake medium containing 61.3 μM [^3 H]DNP-GS after which time 200 mM glucose and 50 units/ml hexokinase (Type F-300 from baker's yeast) were added. […] Control samples were treated identically except that no additions were made after the initial 10 minute incubation period.

[4] = MgATP-dependent, uncoupler-insensitive

T1 sequence (Q9C8G9 whole entry): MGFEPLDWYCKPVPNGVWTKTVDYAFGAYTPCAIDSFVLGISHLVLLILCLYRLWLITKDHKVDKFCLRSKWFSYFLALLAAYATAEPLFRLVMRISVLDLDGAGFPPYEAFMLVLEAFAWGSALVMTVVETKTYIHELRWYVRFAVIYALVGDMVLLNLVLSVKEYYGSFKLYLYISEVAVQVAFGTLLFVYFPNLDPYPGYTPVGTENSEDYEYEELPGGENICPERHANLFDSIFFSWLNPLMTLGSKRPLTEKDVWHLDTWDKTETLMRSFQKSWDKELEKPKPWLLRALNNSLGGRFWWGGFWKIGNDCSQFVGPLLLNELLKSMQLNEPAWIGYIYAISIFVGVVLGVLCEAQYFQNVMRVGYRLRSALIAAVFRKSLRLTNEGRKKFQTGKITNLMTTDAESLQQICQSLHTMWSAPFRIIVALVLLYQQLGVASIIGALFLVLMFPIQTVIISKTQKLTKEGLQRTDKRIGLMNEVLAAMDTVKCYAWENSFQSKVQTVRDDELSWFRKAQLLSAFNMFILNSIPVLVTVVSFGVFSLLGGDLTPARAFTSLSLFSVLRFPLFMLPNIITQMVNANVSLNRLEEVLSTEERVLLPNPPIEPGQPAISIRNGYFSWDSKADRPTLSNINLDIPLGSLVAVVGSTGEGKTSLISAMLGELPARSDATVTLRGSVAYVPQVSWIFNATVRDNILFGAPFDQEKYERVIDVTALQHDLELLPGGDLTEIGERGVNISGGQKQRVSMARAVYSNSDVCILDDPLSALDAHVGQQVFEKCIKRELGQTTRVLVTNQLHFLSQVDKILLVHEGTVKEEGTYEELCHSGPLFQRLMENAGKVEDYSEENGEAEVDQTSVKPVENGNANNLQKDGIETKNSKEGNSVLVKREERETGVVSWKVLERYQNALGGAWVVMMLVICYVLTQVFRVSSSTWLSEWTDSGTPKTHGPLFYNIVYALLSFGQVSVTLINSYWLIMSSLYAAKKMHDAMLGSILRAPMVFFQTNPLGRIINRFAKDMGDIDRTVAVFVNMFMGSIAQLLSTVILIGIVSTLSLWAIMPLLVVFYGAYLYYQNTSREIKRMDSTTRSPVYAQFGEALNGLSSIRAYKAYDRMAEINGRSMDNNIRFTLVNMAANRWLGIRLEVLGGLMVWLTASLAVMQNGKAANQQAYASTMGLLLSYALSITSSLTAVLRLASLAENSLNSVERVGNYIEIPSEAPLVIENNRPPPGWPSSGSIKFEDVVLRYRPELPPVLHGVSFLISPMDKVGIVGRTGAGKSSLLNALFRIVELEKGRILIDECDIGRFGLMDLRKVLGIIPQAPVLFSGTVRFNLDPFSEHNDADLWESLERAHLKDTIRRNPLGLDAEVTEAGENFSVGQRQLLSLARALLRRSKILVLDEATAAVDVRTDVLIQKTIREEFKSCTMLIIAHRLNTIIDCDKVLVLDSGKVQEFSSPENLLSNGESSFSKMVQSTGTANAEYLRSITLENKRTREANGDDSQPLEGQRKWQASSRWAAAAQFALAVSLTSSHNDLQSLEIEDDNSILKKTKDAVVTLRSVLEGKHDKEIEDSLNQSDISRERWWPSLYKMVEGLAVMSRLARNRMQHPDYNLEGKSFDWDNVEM
T2 sequence (Q42093 whole entry): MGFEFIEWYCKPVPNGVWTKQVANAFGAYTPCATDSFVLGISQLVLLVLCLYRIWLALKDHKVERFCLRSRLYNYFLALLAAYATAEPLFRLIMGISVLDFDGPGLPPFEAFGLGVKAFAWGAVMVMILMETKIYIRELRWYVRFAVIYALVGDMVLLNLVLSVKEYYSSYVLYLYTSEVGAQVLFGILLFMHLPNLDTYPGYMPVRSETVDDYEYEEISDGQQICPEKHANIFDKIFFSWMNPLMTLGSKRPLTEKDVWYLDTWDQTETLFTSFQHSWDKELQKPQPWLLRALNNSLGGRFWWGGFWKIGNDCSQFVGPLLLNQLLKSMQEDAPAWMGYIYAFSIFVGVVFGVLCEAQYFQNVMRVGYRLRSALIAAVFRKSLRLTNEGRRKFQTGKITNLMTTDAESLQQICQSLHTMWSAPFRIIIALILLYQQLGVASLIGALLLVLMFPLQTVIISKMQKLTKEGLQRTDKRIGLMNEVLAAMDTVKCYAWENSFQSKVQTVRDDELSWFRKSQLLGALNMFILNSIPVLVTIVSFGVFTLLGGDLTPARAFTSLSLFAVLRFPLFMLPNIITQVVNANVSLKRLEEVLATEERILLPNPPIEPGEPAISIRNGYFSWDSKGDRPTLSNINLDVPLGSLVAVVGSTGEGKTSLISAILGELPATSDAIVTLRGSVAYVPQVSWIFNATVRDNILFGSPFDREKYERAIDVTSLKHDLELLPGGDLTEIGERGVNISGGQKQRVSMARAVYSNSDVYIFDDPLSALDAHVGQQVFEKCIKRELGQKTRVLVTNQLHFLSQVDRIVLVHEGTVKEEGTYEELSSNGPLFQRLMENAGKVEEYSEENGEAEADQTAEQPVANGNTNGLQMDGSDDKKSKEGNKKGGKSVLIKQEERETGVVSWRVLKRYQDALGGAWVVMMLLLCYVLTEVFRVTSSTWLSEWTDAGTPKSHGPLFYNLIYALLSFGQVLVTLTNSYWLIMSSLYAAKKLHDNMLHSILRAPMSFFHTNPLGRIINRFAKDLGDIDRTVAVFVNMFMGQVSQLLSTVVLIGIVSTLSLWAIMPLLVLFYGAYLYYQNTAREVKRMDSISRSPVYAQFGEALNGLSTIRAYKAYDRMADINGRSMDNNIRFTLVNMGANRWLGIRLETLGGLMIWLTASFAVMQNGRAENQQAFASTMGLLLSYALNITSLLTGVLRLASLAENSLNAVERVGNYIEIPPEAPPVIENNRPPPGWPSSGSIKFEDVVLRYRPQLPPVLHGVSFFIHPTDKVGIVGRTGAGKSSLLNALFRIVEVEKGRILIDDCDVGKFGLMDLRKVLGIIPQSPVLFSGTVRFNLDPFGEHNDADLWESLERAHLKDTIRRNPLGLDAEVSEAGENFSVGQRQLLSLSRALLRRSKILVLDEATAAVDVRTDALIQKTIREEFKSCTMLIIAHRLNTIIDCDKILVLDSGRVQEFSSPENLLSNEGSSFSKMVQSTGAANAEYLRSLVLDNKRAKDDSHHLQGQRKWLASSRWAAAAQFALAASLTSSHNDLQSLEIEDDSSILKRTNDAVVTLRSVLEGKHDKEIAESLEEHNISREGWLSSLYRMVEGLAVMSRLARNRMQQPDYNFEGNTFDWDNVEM

N[C@@H](CCC(=O)N[C@@H](CSc1ccc([N+](=O)[O-])cc1[N+](=O)[O-])C(=O)NCC(=O)O)C(=O)O [DNP-GS, S-(2,4-dinitrophenyl)glutathione]
increase in DNP-GS uptake following introduction of plasmid borne AtMRP1 (AtMRP1): ca. 4 nmol/mg/20 minutes | initial rate of DNP-GS uptake (AtMRP1; 61.3 μM DNP-GS): 0.4 nmol/mg/min | Vmax for AtMRP1-dependent uptake (AtMRP1; [4]): 6.0±1.7 nmol/mg/10 min and 8.2±1.6 nmol/mg/10 min | rate of MgATP-dependent, uncoupler-insensitive DNP-GS uptake [1]: 18.2 nmol/mg/20 minutes | Km [2]: 81.3 ± 41.8 µM | IC50 ([3]; read-out: I50 for uptake of ABA-GS): 232 µM | IC50 ([3]; read-out: I50 for uptake of C3G-GS): 112 µM | IC50 ([3]; read-out: I50 for uptake of IAA-GS): 110 µM | Vmax for AtMRP2-dependent [3H]DNP-GS uptake in the presence of Bn-NCC-1 (AtMRP2; 15 μM Bn-NCC-1): 18.3±1.6 nmol/mg/10/min | Vmax for AtMRP2-dependent uptake (AtMRP2; [4]): 16.3±3.1 nmol/mg/10 min
